{"source": "patent US20110117009A1", "about": "“DRUG CONJUGATES WITH POLYGLYCEROLS” (FREIE UNIVERSITÄT BERLIN, priority 2008, published 2011)", "key": {"[1]": {"system": "AsPC1 LN", "assay": "Cytotoxicity, luciferase readout after 72 h", "type": "cell-based", "settings": "Homo sapiens", "method": "After 72 h cells were lysed in 100 μL of luciferase assay buffer, and an aliquot of the lysate was assayed for luciferase activity."}, "[2]": {"system": "human ovarian cancer xenografts (A2780)", "assay": "In vivo efficacy in the ovarian carcinoma A2780 xenograft model", "design": "species or system female NMRI: nu/nu mice", "settings": "doxorubicin 2×8 mg/kg, conjugates 3×24 mg/kg doxorubicin equivalents", "method": "The mice were held in individually ventilaged cages (IVC) under sterile and standardized environmental conditions (25±2° C. room temperature, 50±10% relative humidity, 12 hour light-dark-rhythm). They received autoclaved food and bedding (ssniff, Soest, Germany) and acidified (pH 4.0) drinking water ad libitum. […] Mice were randomly distributed to the experimental groups (8 mice per group). When the tumors were grown to a palpable size, treatment was initiated.\n(§1) Tumor size was measured twice weekly with a caliper-like instrument in two dimensions. Individual tumor volumes (V) were calculated by the formula V=(length×[width]^2)/2 and related to the values on the first day of treatment (relative tumor volume, RTV). Statistical analysis was performed with the U-test (Mann and Whitney) with p<0.05. The body weight of mice was determined every 3 to 4 days."}, "[3]": {"assay": "Tolerability (mortality, body weight change) in the A2780 xenograft study", "type": "in vivo, female NMRI: nu/nu mice", "settings": "i.v. weekly, doxorubicin 2×8 mg/kg, conjugates 3×24 mg/kg doxorubicin equivalents", "method": "In vivo efficacy studies were carried out with compounds 1-A, 1-B, and 1-C and doxorubicin in the ovarian carcinoma A2780 xenograft model. For the in vivo testing, female NMRI: nu/nu mice (Taconic, Denmark) were used. The mice were held in individually ventilaged cages (IVC) under sterile and standardized environmental conditions (25±2° C. room temperature, 50±10% relative humidity, 12 hour light-dark-rhythm). They received autoclaved food and bedding (ssniff, Soest, Germany) and acidified (pH 4.0) drinking water ad libitum. A2780 tumor fragments were transplanted subcutaneously (s.c.) into the left flank region of anaesthetized (40 mg/kg i.p. Radenarkon, Asta Medica, Frankfurt, Germany) mice on day zero. […]\nas §1, with “Statistical analysis was performed with the U-test (Mann and Whitney) with p<0.05.” left out\nThe standard and maximum tolerated dose of doxorubicin (2×8 mg/kg) was compared to compounds 1-A, 1-B, and 1-C at 3×24 mg/kg (doxorubicin equivalents). […] J. Drug Targeting, 8: 305-318, 2000; Trail et al.: Antigen-specific activity of carcinoma-reactive BR64-doxorubicin conjugates evaluated in vitro and in human tumor xenograft models. […]"}, "[4]": {"settings": "nude mice models, e.g. 2×12 mg/kg; cited from earlier work"}}, "note": "Marks after values point to notes of the source that are not given here."}
{"smiles": "COc1cccc2c1C(=O)c1c(O)c3c(c(O)c1C2=O)C[C@@](O)(C(=O)CO)C[C@@H]3O[C@H]1C[C@H](N)[C@H](O)[C@H](C)O1", "note": "[Doxorubicin, doxorubicin]", "values": [{"measurement": "IC50", "setting": "[1]", "result": 360, "unit": "nM"}, {"measurement": "antitumor efficacy (in words)", "setting": "[2]; A2780 xenografts", "result": "moderate antitumor efficacy"}, {"measurement": "optimum T/C RTV", "setting": "[2]; i.v. weekly, relative tumor volume treated versus control", "result": "15* %"}, {"measurement": "toxic death", "setting": "[3]; 8 mice per group", "result": 0}, {"measurement": "BWC (body weight change)", "setting": "[3]; day in brackets", "result": "−21 (d26) %"}, {"measurement": "toxicity at higher doses", "setting": "[4]", "result": "unacceptable toxicity and mortality"}]}
